Source: ChEMBL document CHEMBL6134780, “Halogenated retinoid derivatives as dual RARα and RXRα modulators for treating acute promyelocytic leukemia cells” (Eur J Med Chem, 2024)
Activity calls are given as the source filed them. The calls are words filed in the database; no cut-off is given here.

Tests used:
[1] = molecular target: Retinoic acid receptor RXR-alpha (Homo sapiens, UniProt P19793); experiment: Binding affinity to N-terminal His-tagged human RXRalpha LBD extracted from Escherichia coli BL21 (DE3) cells assessed as dissociation constant by fluorescence quenching assay
Retinoic acid receptor RXR-alpha, sequence (P19793 whole entry, the tested form may be a part): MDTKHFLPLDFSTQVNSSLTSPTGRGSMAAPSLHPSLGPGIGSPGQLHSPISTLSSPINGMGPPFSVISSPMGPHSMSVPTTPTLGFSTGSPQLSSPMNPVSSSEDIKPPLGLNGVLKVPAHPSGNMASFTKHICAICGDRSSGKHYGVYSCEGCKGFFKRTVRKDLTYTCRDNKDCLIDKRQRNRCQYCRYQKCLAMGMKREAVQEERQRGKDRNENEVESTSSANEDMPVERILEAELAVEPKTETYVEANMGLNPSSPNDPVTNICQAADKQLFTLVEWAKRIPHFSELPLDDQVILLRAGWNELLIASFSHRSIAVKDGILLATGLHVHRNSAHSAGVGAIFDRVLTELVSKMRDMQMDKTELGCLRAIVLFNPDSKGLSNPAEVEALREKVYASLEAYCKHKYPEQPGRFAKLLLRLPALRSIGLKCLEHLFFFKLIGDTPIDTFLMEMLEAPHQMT

NB-4 [2] = experiment: Antiproliferative activity against human NB4 cells assessed as inhibition of cell viability at 0.125 uM incubated for 3 days by CCK8 assay relative to control; assay type: functional; conditions: NB-4, 72 h, time 3 day
[3] = molecular target: T1, Retinoic acid receptor alpha (Homo sapiens) (UniProt P10276); experiment: Agonist activity at full length RARalpha LBD (unknown origin) transfected in HEK293T cells co-transfected with pG5luc reporter and Renilla-luc assessed as transactivation at 0.5 to 1 uM incubated for 12 hrs by luciferase reporter gene assay; assay type: cell-based; conditions: filed as agonist, dose 0.5-1 µM
T1 sequence (whole entry): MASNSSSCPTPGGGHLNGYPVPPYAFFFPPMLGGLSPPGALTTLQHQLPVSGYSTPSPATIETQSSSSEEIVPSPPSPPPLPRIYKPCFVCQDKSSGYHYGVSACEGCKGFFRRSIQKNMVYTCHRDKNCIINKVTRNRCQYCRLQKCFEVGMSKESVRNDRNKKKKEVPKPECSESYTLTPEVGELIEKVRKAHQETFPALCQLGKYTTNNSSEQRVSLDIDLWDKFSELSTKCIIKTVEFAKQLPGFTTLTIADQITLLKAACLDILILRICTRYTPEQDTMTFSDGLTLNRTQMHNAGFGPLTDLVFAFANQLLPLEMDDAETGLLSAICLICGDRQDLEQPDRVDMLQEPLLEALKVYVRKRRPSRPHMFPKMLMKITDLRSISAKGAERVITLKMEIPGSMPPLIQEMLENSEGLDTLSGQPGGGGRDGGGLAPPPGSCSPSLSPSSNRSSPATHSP

NB-4 [4] = experiment: Induction of apoptosis in human NB4 cells assessed as late apoptotic cells at 1 uM incubated for 24 hrs by Annexin V-FITC/PI staining based flow cytometric analysis (reference value: 2.23 %); assay type: functional
[5] = Cell cycle arrest in human ATRA-resistant NB4-LR2 cells assessed as accumulation of cells at sub-G1 phase at 1 uM incubated for 12 hrs by DAPI staining based flow cytometric analysis (reference value: 18 %); assay type: functional
[6] = Cell cycle arrest in human ATRA-resistant NB4-LR2 cells assessed as accumulation of cells at S phase at 1 uM incubated for 12 hrs by DAPI staining based flow cytometric analysis (reference value: 12 %); assay type: functional
NB-4 [7] = experiment: Induction of cell differentiation in human NB4 cells assessed as NBT positive cells at 0.5 uM incubated for 6 days by Nitro Blue tetrazolium chloride based microscopic analysis (reference value: 0 %); assay type: functional; conditions: time 6 day
[8] = Induction of apoptosis in human ATRA-resistant NB4-LR2 cells assessed as late apoptotic cells at 1 uM incubated for 24 hrs by Annexin V-FITC/PI staining based flow cytometric analysis (reference value: 5.62 %); assay type: functional
NB-4 [9] = experiment: Cell cycle arrest in human NB4 cells assessed as accumulation of cells at S phase at 1 uM incubated for 12 hrs by DAPI staining based flow cytometric analysis (reference value: 20 %); assay type: functional
NB-4 [10] = experiment: Induction of apoptosis in human NB4 cells assessed as early apoptotic cells at 1 uM incubated for 24 hrs by Annexin V-FITC/PI staining based flow cytometric analysis (reference value: 1.77 %); assay type: functional
NB-4 [11] = experiment: Antiproliferative activity against human NB4 cells assessed as inhibition of cell viability incubated for 3 days by CCK8 assay; assay type: functional, cell-based; conditions: dose <= 3.5 µM, time 3.0 day
[12] = Cell cycle arrest in human ATRA-resistant NB4-LR2 cells assessed as accumulation of cells at G2/M phase at 1 uM incubated for 12 hrs by DAPI staining based flow cytometric analysis (reference value: 28 %); assay type: functional
NB-4 [13] = experiment: Cell cycle arrest in human NB4 cells assessed as accumulation of cells at G2/M phase at 1 uM incubated for 12 hrs by DAPI staining based flow cytometric analysis (reference value: 26 %); assay type: functional
[14] = Cell cycle arrest in human ATRA-resistant NB4-LR2 cells assessed as accumulation of cells at G0/G1 phase at 1 uM incubated for 12 hrs by DAPI staining based flow cytometric analysis (reference value: 42 %); assay type: functional
NB-4 [15] = experiment: Antiproliferative activity against human NB4 cells assessed as inhibition of cell viability up to 2 uM incubated for 3 days by CCK8 assay relative to control; assay type: functional; conditions: time 3 day
NB-4 [16] = experiment: Cell cycle arrest in human NB4 cells assessed as accumulation of cells at sub-G1 phase at 1 uM incubated for 12 hrs by DAPI staining based flow cytometric analysis (reference value: 2 %); assay type: functional
[17] = Induction of apoptosis in human ATRA-resistant NB4-LR2 cells assessed as early apoptotic cells at 1 uM incubated for 24 hrs by Annexin V-FITC/PI staining based flow cytometric analysis (reference value: 1.41 %); assay type: functional
NB-4 [18] = experiment: Cell cycle arrest in human NB4 cells assessed as accumulation of cells at G0/G1 phase at 1 uM incubated for 12 hrs by DAPI staining based flow cytometric analysis (reference value: 51 %); assay type: functional
[19] = Induction of apoptosis in human ATRA-resistant NB4-LR2 cells assessed as necrotic cells at 10 uM incubated for 24 hrs by Annexin V-FITC/PI staining based flow cytometric analysis (reference value: 0.08 %); assay type: functional
NB-4 [20] = experiment: Induction of apoptosis in human NB4 cells assessed as viable cells at 10 uM incubated for 24 hrs by Annexin V-FITC/PI staining based flow cytometric analysis (reference value: 92.36 %); assay type: functional; conditions: read-out: Activity
NB-4 [21] = experiment: Induction of apoptosis in human NB4 cells assessed as early apoptotic cells at 10 uM incubated for 24 hrs by Annexin V-FITC/PI staining based flow cytometric analysis (reference value: 4.37 %); assay type: functional
[22] = Induction of apoptosis in human ATRA-resistant NB4-LR2 cells assessed as viable cells at 10 uM incubated for 24 hrs by Annexin V-FITC/PI staining based flow cytometric analysis (reference value: 87.30 %); assay type: functional; conditions: read-out: Activity
[23] = Induction of apoptosis in human ATRA-resistant NB4-LR2 cells assessed as early apoptotic cells at 10 uM incubated for 24 hrs by Annexin V-FITC/PI staining based flow cytometric analysis (reference value: 5.38 %); assay type: functional
NB-4 [24] = experiment: Induction of apoptosis in human NB4 cells assessed as late apoptotic cells at 10 uM incubated for 24 hrs by Annexin V-FITC/PI staining based flow cytometric analysis (reference value: 3.20 %); assay type: functional
NB-4 [25] = experiment: Induction of apoptosis in human NB4 cells assessed as necrotic cells at 10 uM incubated for 24 hrs by Annexin V-FITC/PI staining based flow cytometric analysis (reference value: 0.07 %); assay type: functional
ATRA-resistant NB4-LR2 [26] = experiment: Cell cycle arrest in human ATRA-resistant NB4-LR2 cells transfected with pLVX-shRXRalpha assessed as increase in PLK1 expression at 8 uM incubated for 12 hrs by Western blot analysis; assay type: functional, cell-based
ATRA-resistant NB4-LR2 [27] = experiment: Cell cycle arrest in human ATRA-resistant NB4-LR2 cells transfected with pLVX-shRXRalpha assessed as increase in cyclin B1 expression at 8 uM incubated for 12 hrs by Western blot analysis; assay type: functional, cell-based
[28] = Induction of apoptosis in human ATRA-resistant NB4-LR2 cells assessed as late apoptotic cells at 10 uM incubated for 24 hrs by Annexin V-FITC/PI staining based flow cytometric analysis (reference value: 7.23 %); assay type: functional
ATRA-resistant NB4-LR2 [29] = experiment: Induction of apoptosis in human ATRA-resistant NB4-LR2 cells transfected with pLVX-shRXRalpha assessed as increase in cleaved PARP expression at 8 uM incubated for 12 hrs by Western blot analysis; assay type: functional, cell-based
[30] = Induction of apoptosis in human ATRA-resistant NB4-LR2 cells assessed as viable cells at 5 uM incubated for 24 hrs by Annexin V-FITC/PI staining based flow cytometric analysis (reference value: 87.30 %); assay type: functional; conditions: read-out: Activity
NB-4 [31] = experiment: Induction of apoptosis in human NB4 cells assessed as necrotic cells at 5 uM incubated for 24 hrs by Annexin V-FITC/PI staining based flow cytometric analysis (reference value: 0.07 %); assay type: functional
[32] = Induction of apoptosis in human ATRA-resistant NB4-LR2 cells assessed as necrotic cells at 5 uM incubated for 24 hrs by Annexin V-FITC/PI staining based flow cytometric analysis (reference value: 0.08 %); assay type: functional
NB-4 [33] = experiment: Induction of apoptosis in human NB4 cells assessed as late apoptotic cells at 5 uM incubated for 24 hrs by Annexin V-FITC/PI staining based flow cytometric analysis (reference value: 3.20 %); assay type: functional
NB-4 [34] = experiment: Induction of apoptosis in human NB4 cells assessed as early apoptotic cells at 5 uM incubated for 24 hrs by Annexin V-FITC/PI staining based flow cytometric analysis (reference value: 4.37 %); assay type: functional
[35] = Induction of apoptosis in human ATRA-resistant NB4-LR2 cells assessed as early apoptotic cells at 5 uM incubated for 24 hrs by Annexin V-FITC/PI staining based flow cytometric analysis (reference value: 5.38 %); assay type: functional
NB-4 [36] = experiment: Induction of apoptosis in human NB4 cells assessed as viable cells at 5 uM incubated for 24 hrs by Annexin V-FITC/PI staining based flow cytometric analysis (reference value: 92.36 %); assay type: functional; conditions: read-out: Activity
[37] = Induction of apoptosis in human ATRA-resistant NB4-LR2 cells assessed as late apoptotic cells at 5 uM incubated for 24 hrs by Annexin V-FITC/PI staining based flow cytometric analysis (reference value: 7.23 %); assay type: functional

## Cc1cc2c(cc1-c1cc(/C=C/C(=O)O)ccc1O)C(C)(C)CCC2(C)C
[1]
  Kd: 549 nM

## Cc1cc2c(cc1C(=O)/C(Cl)=C/c1ccc(C(=O)O)cc1)C(C)(C)CCC2(C)C
NB-4 [2]
  inhibition at 0.125 µM: ~10%
[3]
  Activity: Active; Highly Raralpha Selective Agonistic Activity Observed
NB-4 [4]
  Activity: 21.24%
[5]
  Activity: 19%
[6]
  Activity: 8%
NB-4 [7]
  Activity: 15%
[8]
  Activity: 17.39%
NB-4 [9]
  Activity: 12%
NB-4 [10]
  Activity: 27.43%
NB-4 [11]
  Activity: Dose-dependent-effect
[12]
  Activity: 66%
NB-4 [13]
  Activity: 41%
[14]
  Activity: 7%
NB-4 [15]
  inhibition (INH): 100%
NB-4 [16]
  Activity: 4%
[17]
  Activity: 24.72%
NB-4 [18]
  Activity: 43%

## COc1ccc(CC(=O)N/N=C/c2c(O)ccc3ccccc23)cc1
[19]
  Activity: 0.77%
NB-4 [20]
  viability at 10 µM: 60.7%
NB-4 [21]
  Activity: 20.4%
[22]
  viability at 10 µM: 63.5%
[23]
  Activity: 17.31%
NB-4 [24]
  Activity: 18.15%
NB-4 [25]
  Activity: 1.78%
ATRA-resistant NB4-LR2 [26]
  Activity: inactive
ATRA-resistant NB4-LR2 [27]
  Activity: inactive
[28]
  Activity: 18.38%
ATRA-resistant NB4-LR2 [29]
  Activity: inactive

## O=[N+]([O-])/C=C/c1cccc2ccccc12
[30]
  viability at 5 µM: 42.3%
NB-4 [31]
  Activity: 0.48%
[32]
  Activity: 0.29%
NB-4 [33]
  Activity: 11.26%
NB-4 [34]
  Activity: 9.62%
[35]
  Activity: 28.83%
NB-4 [36]
  viability at 5 µM: 78.6%
[37]
  Activity: 28.61%
